According to US12428394B2, “2,4-disubstituted pyrimidine derivative, preparation method therefor and use thereof” (CHENGDU ZENITAR BIOMEDICAL TECHNOLOGY CO., LTD., priority 2019, dated 2025):

Experiments:
JAK2V617F = assay: JAK2V617F-induced myelofibrosis mouse model; format: in vivo, BALB/c mice; conditions: 30 mg/Kg, oral twice a day, after 8 weeks of treatment
Excerpt: JAK2 mutant JAK2V617F gene vector MSCV-JAK2V617F-GFP (Chengdu Wandao Biotechnology Development Co., Ltd.) and BALB/c mice (Jiangsu Jicui Yaokang Biotechnology Co., Ltd.) were provided as donors. The mouse bone marrow cells were sampled and infected with JAK2V617F virus, and the infected cells were reinfused into BALB/c recipient mice irradiated by X-rays through tail vein. Then, the JAK2V617F-positive myelofibrosis mouse model was induced. […] The administration route was oral administration twice a day, and the mice in the blank control group and the model group took the same volume of normal saline orally. […] Therefore, modifications or improvements made without departing from the spirit of the present invention are within the scope of protection of the present invention.

[1] = test system: MOLM-13 cells (FLT3-ITD-/+); assay: Inhibition of cell proliferation by MTT experiment, MOLM-13; format: cell-based, human; conditions: Homo sapiens, MOLM-13, 72 h, read-out: IC50 value on cell proliferation inhibition, MOLM-13 FLT3-ITD-/+
Procedure, shortened: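 MTT assay in MV4-11, MOLM-13 (FLT3-ITD) and SET-2 (JAK2 V617F) cells at 10,000–15,000 cells/well in IMDM with 10% FBS. Cells are exposed to compound for 72 h at 37 °C, then to MTT for 1–3 h. IC50 is fitted from inhibition rates across concentrations.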

## Cc1cnc(Nc2ccc(N3CCC(N(C)CCO)CC3)c(F)c2)nc1-c1cnn(C(C)C)c1 [CLJ-44, 5-methyl-N-(3-fluoro-4-(4-N-hydroxyethyl-4-N-methylaminopiperidine-1-yl)phenyl)-4-(1-isopropyl-1H-pyrazole-4-yl) pyrimidine-2-amine]
JAK2V617F
  inhibition of growth rate of spleen: 96.73%
[1]
  IC50: 0.01 to 0.1 µM
